Source: US20130115293A1, “Therapeutic Polymeric Nanoparticles Comprising Corticosteroids and Methods of Making and Using Same” (priority 2009, published 2013)
“And” between values parts separate entries of the source, which are not always exact repeats. Equal values may be shown once. Read-outs that look alike come from different tables or passages of the source.

Columns and labels:
indomethacin-induced IBD = experiment: Rat model of inflammatory bowel disease (indomethacin induced); type: in vivo, rats; details: for intestinal score decrease towards normal: days -1 to 3, scored day 4; for small intestine weight decrease toward normal: days -1 to 3, weighed day 4
Method: Budesonide and Budesonide PTNP were compared in a model of inflammatory bowel disease (IBD) as an efficacy model of inflammation. In this model, female rats were given two subcutaneous doses of 8 mg/kg indomethacin at 24 hour intervals to induce lesions resembling those occurring in Crohn's disease in the small intestine. Intravenous daily treatment with vehicle, budesonide (0.02, 0.2 or 2 mg/kg) or budesonide PTNP (0.02, 0.2 or 2 mg/kg) or oral daily treatment with Dexamethasone (0.1 mg/kg) was initiated one day before indomethacin treatment (day −1) and continued for 5 total days (days −1 to 3). Animals were euthanized on day 4, and a 10 cm area at risk in the small intestine was scored for gross pathology and weighed.
Using a disease scoring system in which a score of 0 is normal, and a score of 5 indicates death due to IBD symptoms, normal rats have an average score of 0, and an average intestinal weight of 0.488 g.

[1] = Rat study: pharmacokinetics, plasma levels by LCMS; type: in vivo, Rats (male Sprague Dawley); details: single intravenous dose 0.5 mg/kg; for AUC(0-inf) / clearance / Cmax / Vd / half-life: male, Sprague Dawley, iv, 0.5 mg/kg
Method: Rats (male Sprague Dawley, approximately 300 g with jugular cannulae) were given a single intravenous dose of 0.5 mg/kg of budesonide or passively targeted nanoparticles (PTNP) encapsulating budesonide (prepared as in Example 7) at time=0. At various times after dosing, blood samples were collected from the jugular cannulae into tubes containing lithium heparin, and plasma was prepared. Plasma levels were determined by extraction of the budesonide from plasma followed by LCMS analysis.

[2] = Solubility of drug in beta cyclodextrin (BCD) release medium; type: physicochemical
Method: For in vitro release studies using the procedure of Example 3, beta cyclodextrin (BCD) was evaluated as a solubilizer for maintaining sink conditions during the release of ciclesonide into the release medium.

## CCCC1O[C@@H]2C[C@H]3[C@@H]4CCC5=CC(=O)C=C[C@]5(C)[C@H]4[C@@H](O)C[C@]3(C)[C@]2(C(=O)CO)O1 (some centres unmarked) [Budesonide, budesonide]
indomethacin-induced IBD; 0.02 mg/kg intravenous daily
  intestinal score decrease towards normal: 52%
  small intestine weight decrease toward normal: 52%
indomethacin-induced IBD; 0.2 mg/kg intravenous daily
  intestinal score decrease towards normal: 53%
  small intestine weight decrease toward normal: 53%
indomethacin-induced IBD; 2 mg/kg intravenous daily
  intestinal score decrease towards normal: 59%
  small intestine weight decrease toward normal: 59%
[1]; average of 6 rats, read-out: AUCinf (hr * ng/mL), Avg
  AUC(0-inf): 148 ng·h/mL
[1]; average of 6 rats, read-out: Cl (mL/hr/kg), Avg (converted)
  clearance: 3480 mL/h/kg
[1]; average of 6 rats, read-out: Cmax (ng/mL), Avg
  Cmax: 286 ng/mL
[1]; average of 6 rats, read-out: Vz (mL/kg), Avg
  Vd: 3740 mL/kg
[1]; average of 6 rats, read-out: t1/2 (hr), Avg (converted)
  half-life: 0.75 h
[1]; individual animals, read-out: AUCinf (hr * ng/mL), individual rats
  AUC(0-inf): 159 ng·h/mL
[1]; individual animals, read-out: Cl (mL/hr/kg), individual rats (converted)
  clearance: 3140 mL/h/kg
[1]; individual animals, read-out: Cmax (ng/mL), individual rats
  Cmax: 324 ng/mL
[1]; individual animals, read-out: Vz (mL/kg), individual rats
  Vd: 3310 mL/kg
[1]; individual animals, read-out: t1/2 (hr), individual rats (converted)
  half-life: 0.73 h
[1]; individual animals
  Cl (mL/hr/kg), individual rats: 3966 mL/h/kg and 4611 mL/h/kg and 3104 mL/h/kg and 3151 mL/h/kg and 2892 mL/h/kg
  Cmax (ng/mL), individual rats: 241 ng/mL and 226 ng/mL and 337 ng/mL and 306 ng/mL and 279 ng/mL
  Vz (mL/kg), individual rats: 4291 mL/kg and 4937 mL/kg and 3104 mL/kg and 3191 mL/kg and 3627 mL/kg

## C[C@@H]1C[C@H]2[C@@H]3CCC4=CC(=O)C=C[C@]4(C)[C@@]3(Cl)[C@@H](O)C[C@]2(C)[C@@]1(OC(=O)c1ccco1)C(=O)CCl [MOM, Mometasone Furoate]
[2]; 10% wt BCD in PBS
  [MOM]: 93.5 µg/mL
[2]; […] wt BCD in PBS
  [MOM]: 33.42 µg/mL

## CC(C)C(=O)OCC(=O)[C@@]12O[C@H](C3CCCCC3)O[C@@H]1C[C@H]1[C@@H]3CCC4=CC(=O)C=C[C@]4(C)[C@H]3[C@@H](O)C[C@@]12C [ciclesonide]
[2]; 10% wt BCD
  [ciclesonide]: 133 µg/mL
[2]; […] wt BCD
  [ciclesonide]: 17.58 µg/mL
